Test results: ChEMBL document CHEMBL3259529, “Strychnobaillonine, an unsymmetrical bisindole alkaloid with an unprecedented skeleton from Strychnos icaja roots” (J Nat Prod, 2014)
Converted amounts (≈) assume the structure as drawn.

Experiments:
[1] = tested on: WI-38; experiment: Cytotoxicity against human WI38 cells assessed as cell viability by WST-1 assay; type: cell-based
[2] = tested on: Plasmodium falciparum; experiment: Antiplasmodial activity against chloroquine-sensitive Plasmodium falciparum 3D7 assessed as growth inhibition by lactate dehydrogenase assay; type: functional, organism-based
[3] = Selectivity index, ratio of IC50 for human WI38 cells to IC50 for chloroquine-sensitive Plasmodium falciparum 3D7; type: toxicity, cell-based, WI-38; settings: read-out: Ratio IC50

Compound | IC50 [1] | IC50 [2] | IC90 [2] | selectivity ratio [3]
C/C=C1/CN2CC[C@]34c5ccccc5N5C(=O)[C@H]6[C@@H](O)[C@H]7[C@@H]8N(c9ccccc9[C@@]89CCN8C/C(=C/C)[C@@H]7C[C@H]89)[C@@H]6[C@H]([C@H]53)[C@H]1C[C@H]24 | > 10 µg/mL | 1.1 µM | 2.6 µg/mL (≈ 4.24 µM) | > 14
C/C=C1/CN2[C@@H](C3=C[C@@H]4[C@@H]5N(C3=O)c3ccccc3[C@@]53CCN5C/C(=C/C)[C@@H]4C[C@H]53)C[C@@]34c5ccccc5N5C6=C7[C@H]8C[C@@H]9N(CC[C@@]9%10c9ccccc9N(C6=C([C@H]1C[C@H]23)[C@H]54)[C@@H]7%10)C/C8=C/C | < 5 µg/mL | 0.6 µM | 1.6 µg/mL (≈ 1.85 µM) | < 10.1
C[C@@H]1CC[C@H]2[C@@H](C)C(=O)O[C@@H]3O[C@@]4(C)CC[C@@H]1[C@]32OO4 [ARTEMISININ] |  | 0.01 µg/mL |  | 
CC[C@@]1(O)C(=O)OCc2c1cc1n(c2=O)Cc2cc3ccccc3nc2-1 [CAMPTOTHECIN] | 0.03 µg/mL (≈ 0.0861 µM) |  |  | 
